Reference: PubChem BioAssay AID651817 (Broad Institute, 2012)
Calls of active or inactive are those of the source.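 Rule for the calls: active = compound whose fitted luminescence drop, meaning cytotoxicity, reaches half effect at most twice its top valid tested dose; inconclusive = flat curve with a moderate drop, or an unreliable fit; inactive = rise instead of drop, flat response, or weaker potency.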

Assay: mouse fibroblast viability loss – cell-based, cherry-pick samples, set 2, cytotoxicity control for T. cruzi growth inhibitor project, dose response (AID 651817)
Conditions: NIH/3T3 viability, ATP luminescence (CellTiter-Glo), 90 h; at 3.8 µM (top of the series)

Row | Structure (SMILES) | activity change, negative = cytotoxicity
1 | C[C@H]1CN([C@@H](C)CO)C(=O)c2cccc(NC(=O)c3nc4ccccc4s3)c2O[C@@H]1CN(C)S(=O)(=O)c1ccccc1 | 28.8% (inactive)

Same assay, conditions: NIH/3T3 viability, ATP luminescence (CellTiter-Glo), 90 h; at 19.5 µM (top of the series)

Row | Structure (SMILES) | activity change, negative = cytotoxicity
2 | C[C@H]1CN([C@@H](C)CO)C(=O)c2cccc(NC(=O)NC3CCCCC3)c2O[C@@H]1CN(C)S(=O)(=O)c1ccc(F)cc1 | 3.7% (inactive)
3 | C[C@H]1CN([C@@H](C)CO)C(=O)c2cccc(NC(=O)c3ccncc3)c2O[C@@H]1CN(C)Cc1ccc(-c2ccccc2)cc1 | -14.8% (inactive)
4 | Cc1ccc(S(=O)(=O)Nc2ccc3c(c2)CC(=O)N([C@H](C)CO)C[C@@H](C)[C@H](CN(C)S(=O)(=O)c2ccc(Cl)cc2)O3)cc1 | -23.3% (inactive)
5 | C[C@@H]1CN([C@@H](C)CO)C(=O)Cc2cc(NS(=O)(=O)c3ccc(Cl)cc3)ccc2O[C@@H]1CN(C)S(=O)(=O)c1ccc(Cl)cc1 | -14.1% (inactive)
6 | C[C@@H]1CN([C@@H](C)CO)C(=O)Cc2cc(NS(=O)(=O)c3ccccc3)ccc2O[C@H]1CN(C)S(=O)(=O)c1ccc(Cl)cc1 | 0.768% (inactive)
7 | C[C@@H]1CN([C@H](C)CO)C(=O)c2cccc(NC(=O)c3ccncc3)c2O[C@H]1CN(C)Cc1ccc(Oc2ccccc2)cc1 | -6.58% (inactive)
8 | Cc1ccc(S(=O)(=O)N(C)C[C@H]2Oc3c(NC(=O)c4nc5ccccc5s4)cccc3C(=O)N([C@H](C)CO)C[C@H]2C)cc1 | 14.1% (inactive)
9 | C[C@@H]1CN([C@H](C)CO)C(=O)c2cccc(NC(=O)c3ccncc3)c2O[C@@H]1CN(C)Cc1ccc2c(c1)OCO2 | -25.6% (inactive)
10 | Cc1noc(C)c1NC(=O)Nc1cccc2c1O[C@H](CN(C)S(C)(=O)=O)[C@H](C)CN([C@H](C)CO)C2=O | -14.2% (inactive)
11 | C[C@@H]1CN([C@H](C)CO)C(=O)Cc2cc(NS(=O)(=O)c3ccccc3)ccc2O[C@H]1CN(C)S(=O)(=O)c1ccc(Cl)cc1 | -1.38% (inactive)
12 | Cc1ccc(S(=O)(=O)Nc2ccc3c(c2)CC(=O)N([C@@H](C)CO)C[C@H](C)[C@H](CN(C)S(=O)(=O)c2ccc(Cl)cc2)O3)cc1 | -3.56% (inactive)
13 | C[C@H]1CN([C@@H](C)CO)C(=O)c2cccc(NC(=O)c3nc4ccccc4s3)c2O[C@@H]1CN(C)S(=O)(=O)c1ccc(Cl)cc1 | -9.43% (inactive)
14 | C[C@@H]1CN([C@@H](C)CO)C(=O)c2cccc(NC(=O)c3nc4ccccc4s3)c2O[C@H]1CN(C)S(=O)(=O)c1ccccc1 | -9.49% (inactive)
15 | C[C@H](CO)N1C[C@H](C)[C@H](CN(C)Cc2ccc(-c3ccccc3)cc2)Oc2c(NC(=O)c3ccncc3)cccc2C1=O | 4.37% (inactive)
16 | Cc1noc(C)c1NC(=O)Nc1cccc2c1O[C@H](CN(C)S(C)(=O)=O)[C@H](C)CN([C@@H](C)CO)C2=O | 1.29% (inactive)
17 | Cc1ccc(S(=O)(=O)Nc2ccc3c(c2)CC(=O)N([C@@H](C)CO)C[C@H](C)[C@H](CN(C)Cc2ccccc2)O3)cc1 | -4.35% (inactive)
18 | Cc1ccc(S(=O)(=O)N(C)C[C@H]2Oc3ccc(NS(=O)(=O)c4ccccc4)cc3CC(=O)N([C@@H](C)CO)C[C@@H]2C)cc1 | 26% (inactive)
19 | C[C@@H]1CN([C@H](C)CO)C(=O)c2cccc(NC(=O)c3ccncc3)c2O[C@H]1CN(C)CC1CC1 | -26.2% (inactive)

Row | Structure (SMILES) | activity change, negative = cytotoxicity
20 | C[C@@H]1CN([C@H](C)CO)C(=O)c2cccc(NC(=O)c3ccncc3)c2O[C@@H]1CN(C)Cc1ccc(Oc2ccccc2)cc1 | 14.7% (inactive)
21 | Cc1ccc(S(=O)(=O)N(C)C[C@H]2Oc3ccc(NS(=O)(=O)c4ccccc4)cc3CC(=O)N([C@H](C)CO)C[C@@H]2C)cc1 | -11.8% (inactive)
22 | Cc1noc(C)c1NC(=O)Nc1cccc2c1O[C@H](CN(C)S(C)(=O)=O)[C@@H](C)CN([C@@H](C)CO)C2=O | -18.2% (inactive)
23 | C[C@H](CO)N1C[C@H](C)[C@@H](CN(C)S(=O)(=O)c2ccc(Cl)cc2)Oc2ccc(NS(=O)(=O)c3ccc(Cl)cc3)cc2CC1=O | -32.5% (inactive)
24 | C[C@@H]1CN([C@H](C)CO)C(=O)c2cccc(NC(=O)c3nc4ccccc4s3)c2O[C@@H]1CN(C)S(=O)(=O)c1ccccc1 | 35.6% (inactive)
25 | C[C@@H]1CN([C@H](C)CO)C(=O)c2cccc(NC(=O)c3nc4ccccc4s3)c2O[C@@H]1CN(C)Cc1ccc2c(c1)OCO2 | -22.1% (inactive)
26 | COc1ccc(CN(C)C[C@@H]2Oc3c(NC(=O)c4ccncc4)cccc3C(=O)N([C@@H](C)CO)C[C@H]2C)cc1 | -18.8% (inactive)
27 | C[C@H](CO)N1C[C@H](C)[C@@H](CN(C)S(=O)(=O)c2ccc(F)cc2)Oc2c(NC(=O)NC3CCCCC3)cccc2C1=O | 5.78% (inactive)
28 | C[C@@H]1CN([C@@H](C)CO)C(=O)c2cccc(NC(=O)c3ccncc3)c2O[C@H]1CN(C)CC1CCCCC1 | -8.6% (inactive)
29 | C[C@@H]1CN([C@@H](C)CO)C(=O)c2cccc(NC(=O)c3ccncc3)c2O[C@H]1CN(C)Cc1ccc2c(c1)OCO2 | -26.4% (inactive)
30 | C[C@H](CO)N1C[C@H](C)[C@H](CN(C)Cc2ccc3c(c2)OCO3)Oc2c(NC(=O)c3nc4ccccc4s3)cccc2C1=O | -1.97% (inactive)
31 | COc1ccc(CN(C)C[C@@H]2Oc3c(NC(=O)Nc4ccc(C(F)(F)F)cc4)cccc3C(=O)N([C@@H](C)CO)C[C@@H]2C)cc1 | -25.6% (inactive)
32 | C[C@@H]1CN([C@@H](C)CO)C(=O)c2cccc(NC(=O)c3ccncc3)c2O[C@@H]1CN(C)Cc1ccc(Cl)c(Cl)c1 | 33% (inactive)
33 | C[C@H](CO)N1C[C@H](C)[C@@H](CN(C)Cc2ccc3c(c2)OCO3)Oc2c(NC(=O)c3ccncc3)cccc2C1=O | -18.8% (inactive)
34 | COc1ccc(CN(C)C[C@@H]2Oc3c(NC(=O)Nc4ccc(C(F)(F)F)cc4)cccc3C(=O)N([C@@H](C)CO)C[C@H]2C)cc1 | -16.2% (inactive)
35 | Cc1ccc(S(=O)(=O)N(C)C[C@H]2Oc3ccc(NS(=O)(=O)c4ccc(Cl)cc4)cc3CC(=O)N([C@H](C)CO)C[C@@H]2C)cc1 | 3.37% (inactive)
36 | C[C@H]1CN([C@@H](C)CO)C(=O)Cc2cc(NS(=O)(=O)c3ccc(Cl)cc3)ccc2O[C@H]1CN(C)S(=O)(=O)c1ccc(Cl)cc1 | -12.7% (inactive)

Same assay, conditions: NIH/3T3 viability, ATP luminescence (CellTiter-Glo), 90 h; at 21 µM (top of the series)

Row | Structure (SMILES) | activity change, negative = cytotoxicity
37 | C[C@H]1CN([C@@H](C)CO)C(=O)c2cccc(NC(=O)c3ccncc3)c2O[C@H]1CN(C)Cc1ccc(Oc2ccccc2)cc1 | 7.51% (inactive)
38 | Cc1ccc(S(=O)(=O)Nc2ccc3c(c2)CC(=O)N([C@H](C)CO)C[C@@H](C)[C@H](CN(C)Cc2ccccc2)O3)cc1 | 9.12% (inactive)
39 | C[C@@H]1CN([C@@H](C)CO)C(=O)c2cccc(NC(=O)c3ccncc3)c2O[C@@H]1CN(C)Cc1ccc(Oc2ccccc2)cc1 | 31.2% (inactive)
40 | Cc1ccc(S(=O)(=O)Nc2ccc3c(c2)CC(=O)N([C@@H](C)CO)C[C@@H](C)[C@@H](CN(C)Cc2ccc(Cl)c(Cl)c2)O3)cc1 | -67.6% (inactive)
